pEC50: −log10 of the molar value.
Biological target: T1, human mAChR M4 (Homo sapiens, UniProt P08173)
T1 construct: expressed in transfected cells; host or cells: CHO-K1 (American Type Culture Collection), stably expressing hM4 and Gqi5
T1 sequence (P08173 1-479): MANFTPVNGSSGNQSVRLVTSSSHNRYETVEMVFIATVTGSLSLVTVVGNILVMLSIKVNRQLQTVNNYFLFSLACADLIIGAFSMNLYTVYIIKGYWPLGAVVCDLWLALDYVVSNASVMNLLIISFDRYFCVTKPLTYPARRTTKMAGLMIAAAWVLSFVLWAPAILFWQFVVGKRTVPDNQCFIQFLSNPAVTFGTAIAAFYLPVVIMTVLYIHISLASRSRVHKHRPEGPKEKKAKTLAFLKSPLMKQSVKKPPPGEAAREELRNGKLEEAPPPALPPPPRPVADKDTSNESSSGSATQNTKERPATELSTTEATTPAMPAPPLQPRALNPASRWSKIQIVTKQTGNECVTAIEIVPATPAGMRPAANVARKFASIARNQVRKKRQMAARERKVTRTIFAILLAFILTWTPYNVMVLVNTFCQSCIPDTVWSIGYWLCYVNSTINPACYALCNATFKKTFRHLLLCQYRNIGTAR
Test: mAChR M4 cell-based functional assay: calcium mobilization (Fluo-4, FDSS), potentiation of EC20 acetylcholine response in hM4-Gqi5 CHO-K1 cells
Details: human M4; for Emax at 30 µM: CHO-K1, % ACh maximum at 30 μM; for pEC50: potentiation of EC20 acetylcholine response, calcium mobilization
Description: Human and rat M4 cDNAs, along with the chimeric G protein Gqi5, were transfected into Chinese hamster ovary (CHO-K1) cells purchased from the American Type Culture Collection using Lipofectamine2000. hM4-Gqi5 cells were grown in Ham's F-12 medium containing 10% heat-inactivated fetal bovine serum (FBS), 20 mM HEPES, 50 μg/mL G418 sulfate, and 500 μg/mL Hygromycin B. rM4-Gqi5 cells were grown in DMEM containing 10% heat-inactivated FBS, 20 mM HEPES, 400 μg/mL G418 sulfate, and 500 μg/mL Hygromycin B.
For high throughput measurement of agonist-evoked increases in intracellular calcium, CHO-K1 cells stably expressing muscarinic receptors were plated in growth medium lacking G418 and hygromycin at 15,000 cells/20 μL/well in Greiner 384-well black-walled, tissue culture (TC)-treated, clear-bottom plates (VWR). Cells were incubated overnight at 37° C. and 5% CO2. The next day, cells were washed using an ELX 405 (BioTek) with assay buffer; the final volume was then aspirated to 20 μL. Next, 20 μL of a […] of Fluo-4/acetoxymethyl ester (Invitrogen, Carlsbad, CA), prepared as a 2.3 mM stock in DMSO and mixed in a 1:1 ratio with 10% (w/v) Pluronic F-127 and diluted in assay buffer, was added to the wells and the cell plates were incubated for 50 min at 37° C. and 5% CO2. Dye was removed by washing with the ELX 405 and the final volume was aspirated to 20 μL. Compound master plates were formatted in an 11 point concentration-response curve (CRC) format (1:3 dilutions) in 100% DMSO with a starting concentration of 10 mM using a BRAVO liquid handler (Agilent). Test compound CRCs were then transferred to daughter plates (240 nL) using the Echo acoustic plate reformatter (Labcyte, Sunnyvale, CA) and then diluted into assay buffer (40 μL) to a 2× stock using a Thermo Fisher Combi (Thermo Fisher Scientific, Waltham, MA).
Calcium flux was measured using the Functional Drug Screening System (FDSS) 6000 or 7000 (Hamamatsu Corporation, Tokyo, Japan) as an increase in the fluorescent static ratio. Compounds were applied to cells (20 μL, 2X) using the automated system of the FDSS at 2-4 seconds into the protocol and the data were collected at 1 Hz. At 144 seconds, 10 μL of an EC20 concentration of the muscarinic receptor agonist acetylcholine was added (5×), followed by the addition of 12 μL of an […] concentration of acetylcholine at the 230 second time point (5×). Agonist activity was analyzed as a concentration-dependent increase in calcium mobilization upon compound addition. Positive allosteric modulator activity was analyzed as a concentration-dependent increase in the EC20 acetylcholine response. Antagonist activity was analyzed as a concentration-dependent decrease in the EC20 acetylcholine response. Concentration-response curves were generated using a four-parameter logistical equation in XLFit curve fitting software (IDBS, Bridgewater, NJ) for Excel (Microsoft, Redmond, WA) or Prism (GraphPad Software, Inc., San Diego, CA).
Compounds were synthesized as described above. Activity (EC50 and Emax) was determined in the mAChR M4 cell-based functional assay as described above and the data are shown in Table 4. The compound number corresponds to the compound numbers used in Tables 1-3.

SMILES | Emax at 30 µM | pEC50
Cc1c(N2CCc3ncc(C(F)(F)F)cc3C2)nn2c(=O)cc(C(F)(F)F)nc2c1C [Compound 1-39, 8,9-dimethyl-2-(trifluoromethyl)-7-(3-(trifluoromethyl)-7,8-dihydro-1,6-naphthyridin-6(5H)-yl)-4H-pyrimido[1,2-b]pyridazin-4-one] | 86% | 6.69
Cc1c(N2CCc3ncc(C(F)(F)F)cc3C2)nn2c(=O)cc(C(F)F)nc2c1C [Compound 1-40, 2-(difluoromethyl)-8,9-dimethyl-7-(3-(trifluoromethyl)-7,8-dihydro-1,6-naphthyridin-6(5H)-yl)-4H-pyrimido[1,2-b]pyridazin-4-one] | 93% | 7.42
Cc1cc2nccc(=O)n2nc1N1CCc2ncc(-c3cccc4ncccc34)cc2C1 [Compound 1-41, 8-methyl-7-(3-(quinolin-5-yl)-7,8-dihydro-1,6-naphthyridin-6(5H)-yl)-4H-pyrimido[1,2-b]pyridazin-4-one] | 83% | 6.37
Cc1cc2nc(C(=O)NCc3cncs3)cc(=O)n2nc1N1CCc2ncc(C(F)(F)F)cc2C1 [Compound 1-42, 8-methyl-4-oxo-N-(thiazol-5-ylmethyl)-7-(3-(trifluoromethyl)-7,8-dihydro-1,6-naphthyridin-6(5H)-yl)-4H-pyrimido[1,2-b]pyridazine-2-carboxamide] | 87% | 6.70
Cc1cc2nc(C(=O)N3CCC(c4cccnc4)C3)cc(=O)n2nc1N1CCc2ncc(C(F)(F)F)cc2C1 (stereo not shown) [Compound 1-43, 8-methyl-2-(3-(pyridin-3-yl)pyrrolidine-1-carbonyl)-7-(3-(trifluoromethyl)-7,8-dihydro-1,6-naphthyridin-6(5H)-yl)-4H-pyrimido[1,2-b]pyridazin-4-one] | 92% | 6.21
Cc1cc2nc(C(=O)N3CC4(COC4)C3)cc(=O)n2nc1N1CCc2ncc(C(F)(F)F)cc2C1 [Compound 1-44, 8-methyl-2-(2-oxa-6-azaspiro[3.3]heptane-6-carbonyl)-7-(3-(trifluoromethyl)-7,8-dihydro-1,6-naphthyridin-6(5H)-yl)-4H-pyrimido[1,2-b]pyridazin-4-one] | 92% | 5.95
Cc1cc2nc(C(=O)N3CC(C)(F)C3)cc(=O)n2nc1N1CCc2ncc(C(F)(F)F)cc2C1 [Compound 1-45, 2-(3-fluoro-3-methylazetidine-1-carbonyl)-8-methyl-7-(3-(trifluoromethyl)-7,8-dihydro-1,6-naphthyridin-6(5H)-yl)-4H-pyrimido[1,2-b]pyridazin-4-one] | 100% | 6.78
Cc1cc2nc(C(=O)NC3(C#N)CC3)cc(=O)n2nc1N1CCc2ncc(C(F)(F)F)cc2C1 [Compound 1-46, N-(1-cyanocyclopropyl)-8-methyl-4-oxo-7-(3-(trifluoromethyl)-7,8-dihydro-1,6-naphthyridin-6(5H)-yl)-4H-pyrimido[1,2-b]pyridazine-2-carboxamide] | 99% | 6.93
COC1CN(C(=O)c2cc(=O)n3nc(N4CCc5ncc(C(F)(F)F)cc5C4)c(C)cc3n2)C1 [Compound 1-47, 2-(3-methoxyazetidine-1-carbonyl)-8-methyl-7-(3-(trifluoromethyl)-7,8-dihydro-1,6-naphthyridin-6(5H)-yl)-4H-pyrimido[1,2-b]pyridazin-4-one] | 103% | 6.84
Cc1ccc2c(-c3cnc4c(c3)CN(c3nn5c(=O)ccnc5cc3C)CC4)cccc2n1 [Compound 1-48, 8-methyl-7-(3-(2-methylquinolin-5-yl)-7,8-dihydro-1,6-naphthyridin-6(5H)-yl)-4H-pyrimido[1,2-b]pyridazin-4-one] | 72% | 6.49
Cc1cc2nccc(=O)n2nc1N1CCc2ncc(-c3ccc(=O)n(C)c3)cc2C1 [Compound 1-49, 8-methyl-7-(3-(1-methyl-6-oxo-1,6-dihydropyridin-3-yl)-7,8-dihydro-1,6-naphthyridin-6(5H)-yl)-4H-pyrimido[1,2-b]pyridazin-4-one] | 98% | 5.63
COc1cnccc1-c1cnc2c(c1)CN(c1nn3c(=O)ccnc3cc1C)CC2 [Compound 1-50, 7-(3-(3-methoxypyridin-4-yl)-7,8-dihydro-1,6-naphthyridin-6(5H)-yl)-8-methyl-4H-pyrimido[1,2-b]pyridazin-4-one] | 84% | 6.16
COc1cc(-c2cnc3c(c2)CN(c2nn4c(=O)ccnc4cc2C)CC3)ccc1F [Compound 1-51, 7-(3-(4-fluoro-3-methoxyphenyl)-7,8-dihydro-1,6-naphthyridin-6(5H)-yl)-8-methyl-4H-pyrimido[1,2-b]pyridazin-4-one] | 85% | 6.53
COc1cncc(-c2cnc3c(c2)CN(c2nn4c(=O)ccnc4cc2C)CC3)c1 [Compound 1-52, 7-(3-(5-methoxypyridin-3-yl)-7,8-dihydro-1,6-naphthyridin-6(5H)-yl)-8-methyl-4H-pyrimido[1,2-b]pyridazin-4-one] | 47% | 6.63
Cc1cc2nccc(=O)n2nc1N1CCc2ncc(-c3ccc4nccn4c3)cc2C1 [Compound 1-53, 7-(3-(imidazo[1,2-a]pyridin-6-yl)-7,8-dihydro-1,6-naphthyridin-6(5H)-yl)-8-methyl-4H-pyrimido[1,2-b]pyridazin-4-one] | 75% | 6.16
Cc1cc2nccc(=O)n2nc1N1CCc2ncc(-c3ccnc(C4CC4)c3)cc2C1 [Compound 1-54, 7-(3-(2-cyclopropylpyridin-4-yl)-7,8-dihydro-1,6-naphthyridin-6(5H)-yl)-8-methyl-4H-pyrimido[1,2-b]pyridazin-4-one] | 76% | 6.32
Cc1cc2nc(C(=O)NC3CN(CC(F)(F)F)C3)cc(=O)n2nc1N1CCc2ncc(C(F)(F)F)cc2C1 [Compound 1-55, 8-methyl-4-oxo-N-(1-(2,2,2-trifluoroethyl)azetidin-3-yl)-7-(3-(trifluoromethyl)-7,8-dihydro-1,6-naphthyridin-6(5H)-yl)-4H-pyrimido[1,2-b]pyridazine-2-carboxamide] | 94% | 6.32
Cc1cc2nc(C(=O)N3CC(C)C3)cc(=O)n2nc1N1CCc2ncc(C(F)(F)F)cc2C1 [Compound 1-56, 8-methyl-2-(3-methylazetidine-1-carbonyl)-7-(3-(trifluoromethyl)-7,8-dihydro-1,6-naphthyridin-6(5H)-yl)-4H-pyrimido[1,2-b]pyridazin-4-one] | 102% | 6.55
COc1cc(-c2cnc3c(c2)CN(c2nn4c(=O)ccnc4cc2C)CC3)c(Cl)cn1 [Compound 1-57, 7-(3-(5-chloro-2-methoxypyridin-4-yl)-7,8-dihydro-1,6-naphthyridin-6(5H)-yl)-8-methyl-4H-pyrimido[1,2-b]pyridazin-4-one] | 70% | 6.13
Cc1cc2nccc(=O)n2nc1N1CCc2ncc(-c3cccnc3F)cc2C1 [Compound 1-58, 7-(3-(2-fluoropyridin-3-yl)-7,8-dihydro-1,6-naphthyridin-6(5H)-yl)-8-methyl-4H-pyrimido[1,2-b]pyridazin-4-one] | 88% | 6.40
